Test results: patent publication US12251385B2, “Covalent inhibitors of menin-MLL interaction for diabetes mellitus” (BIOMEA FUSION, INC., priority 2021, dated 2025)
“Also recorded” adds a separate entry of the source.

What was measured:
[1] = test system: streptozotocin (STZ) induced type II diabetes in Wistar Han rats; test: Restoration of glycemic control in streptozotocin-induced rats (Example 103); type: in vivo, rat
Protocol: The present example provides the ability of Compound 10 to restore glycemic control to streptozotocin (STZ) induced type II diabetes in Wistar Han rats. Fahmy et al., 2017, World J. Pharm. Med. Res. 3(3):37-39.
(§1) Control and test compounds were stored at 4° C. and prepared weekly as needed. The vehicle for positive control pioglitazone was 0.25% carboxymethylcellulose and 1% Tween® 80 in reverse osmosis deionized water. The vehicle for Compound 10 was 10% DMSO, 10% Solutol HS 15, and 80% (10% hydroxypropyl-β-cyclodextrin in 50 mM citrate buffer at pH 3.0). The vehicle for streptozotocin pretreatment was 0.1 M sodium citrate pH 4.5.
(§2) On Day −3, twenty-four Wistar Han rats (plus eight spare Wistar Han rats) were measured for body weight and non-fasting glucose. Starting on Day −42, D12451 Research Diet was provided ad libitum throughout the study, except during designated procedures, as was water. In order to minimize the effects of stress on blood glucose and body, all animals including the spares received daily sham doses with phosphate buffered saline pH 7.2 (dose volume 5 mL/kg) via gavage beginning on Study Day −5 to Day −1. 20% Glucose in drinking water (200 g/L) was provided ad libitum for 24 hr after streptozotocin injection on Day −14 and Day −7.
On Days −14 and −7, streptozotocin was administered at 30 mg/kg/day QD intraperitoneally. Starting on Day 1, control and test compound were administered on the following schedule.
(§3) On Days −7 to −1 and on Days 1, 8, and 14 non-fasting blood glucose was measured. On Day 15, an oral glucose tolerance test was administered. The animals were weighed and the animals were placed in clean cages without food. Access to water was provided throughout the procedure. The animals were fasted for five hours and a blood glucose measurement was determined. The animals were dosed via oral gavage with 2 g/kg glucose (10 mL/kg). Blood glucose was determined via venipuncture. The second drop of blood from the animal was placed on a hand-held glucometer (Abbott Alpha Trak) at the following times relative to the glucose dose: zero (just prior to glucose dose), 15, 30, 60, 90, and 120 min. Following the final blood glucose measurement, food was returned to the cages. On Day 17, 4-hour fasting glucose was measured. Serum samples were used to measure insulin by ELISA. Analysis was performed in one to three days of each collection. On Day 17, terminal blood collection was obtained at about 8 mL per animal and measured for blood glucose.

[2] = test system: Type 2 Diabetes Mellitus (T2DM) Zucker Diabetic Fatty Rat model; test: Glycemic control in ZDF rats, 28 days treatment plus 28 days post-treatment (Example 104); type: in vivo
Protocol: Rats were treated daily with Compound 10, liraglutide, or vehicle for twenty-eight days and monitored for an additional twenty-eight days post-treatment.

[3] = test system: Streptozotocin-induced Rat (STZ); test: STZ rat model, 16 days dosing (Example 105); type: in vivo; settings: STZ rats
Protocol: (§4) ZDF rats were treated daily with Compound 10, vehicle, or pioglitazone for sixteen days and monitored for an additional two weeks post-treatment until Day 29. STZ rat models were induced through pre-treatment of animals on a high-fat diet with low doses of streptozotocin at Day −14 and Day −7 prior to starting treatment at Day Zero until Day 16. ZDF and STZ rats were monitored for fasting blood glucose levels, oral glucose tolerance test (OGTT), insulin and C-peptide levels, HOMA-IR (Homeostatic Model Assessment of Insulin Resistance), blood lipemic levels, and body weight according to the schematic for each model below. ZDF rats were analyzed for indicated readouts for fifteen days post-treatment for OGTT at Day 29, and serum insulin and C-peptide at Day 31.
STZ Rat Model—three treatment groups 1. Vehicle; 2. Compound 10 at 175 mg/kg; and 3. Pioglitazone at 30 mg/kg; n=10 per group. Fourteen-day STZ pretreatment prior to dosing. Daily dosing zero to sixteen days QD. Rats were monitored for the following parameters through dosing—body weight, blood glucose levels, and OGTT.

[4] = test system: Zucker diabetic fatty rats (ZDF rats, genotype ZDF-Lepr^fa/Crl); test: Restoration of glycemic control in diabetic fatty rats, dosing Days 1-16 (Example 102); type: in vivo, rat
Protocol: The present examples provides the ability of Compound 10 to restore glycemic control to diabetic Zucker diabetic fatty rats (ZDF rats, genotype ZDF-Lepr^fa/Crl; Charles River). Cornicelli et al., 2005, Charles River.
as §1, with “3.0).” for “3.0). The vehicle for streptozotocin pretreatment was 0.1 M sodium citrate pH 4.5.”
as §2, with “ZDF” for “Wistar Han”, “LabDiet 5008” for “Starting on Day −42, D12451 Research Diet”, “−1.” for “−1. 20% Glucose in drinking water (200 g/L) was provided ad libitum for 24 hr after streptozotocin injection on Day −14 and Day −7.”
Vehicle, control, and test compound were administered via oral gavage according to the following design on Days 1-16.
as §3, with “−3,” for “−7 to −1 and on Days”, “On Day 15, an oral glucose tolerance test was administered.” left out, “weighed,” for “weighed”, “tail snip.” for “venipuncture.”, “collections. […]” for “collection. On Day 17, terminal blood collection was obtained at about 8 mL per animal and measured for blood glucose.”

[5] = test system: Zucker Diabetic Fatty (ZDF) rats; test: Reduction in HbA1c in ZDF rats, 28 days dosing and washout (Example 106); type: in vivo, rat
Protocol: Zucker Diabetic Fatty (ZDF) rats were dosed daily with Compound 10, liraglutide, or vehicle for twenty-eight days (n=10 per group) and monitored for an additional twenty-eight days post last dose. Fasting blood glucose, insulin, C-peptide levels, HbA1c, oral glucose tolerance test (OGTT), and body weight were monitored during and post-treatment.
ZDF Rat Model—five treatment groups 1. Vehicle; 2. Compound 10 at 40 mg/kg; 3. Compound 10 at 85 mg/kg; 4. Compound 10 at 170 mg/kg; and 5. Liraglutide at 0.2 mg/kg; n=10 per group. Group 2 dose (40 mg/kg) was increased to 200 mg/kg on Day 17 for rest of the dosing phase. Daily dosing zero to twenty-eight days days QD 4 drug wash out twenty-eight to fifty-six days. Rats were monitored for the following parameters through dosing and wash out phases—body weight, fasting blood sugar, blood insulin, C-peptide, OGTT, and HbA1C.

[6] = test system: Zucker Diabetic Fatty (ZDF) Rat; test: ZDF rat model, 16 days dosing and drug washout to Day 29 (Example 105); type: in vivo; settings: ZDF rats
Protocol: as §4
ZDF Rat Model—three treatment groups 1. Vehicle; 2. Compound 10 at 175 mg/kg; and 3. Pioglitazone at 30 mg/kg; n=10 per group. Daily dosing zero to sixteen days QD 4 drug wash out at sixteen to twenty-nine days. Rats were monitored for the following parameters through dosing and wash out phases—body weight, fasting blood sugar, blood insulin, C-peptide, and OGTT.

[7] = twenty-eight days of treatment, FIG. 18
[8] = up to the last day of dosing, lasting two weeks post last dose
[9] = 175 mg/kg QD, after two weeks of treatment
[10] = 175 mg/kg QD, after two weeks of treatment, p<0.05

C=CC(=O)N[C@@H]1CCCN(Cc2ccnc(C(=O)Nc3ccc(-c4cc5c(N6CCOCC6)ncnc5[nH]4)cc3)c2)C1 [Compound 10]
non-fasting glucose ([1]; STZ-induced Wistar Han rats, 175 mg/kg/day PO QD, compared to vehicle and control, FIG. 8): sharp reduction | insulin, 4-hour fasting state (FIG. 10B) ([1]; STZ-induced rats, Day 17): maintenance or reduction | insulin, non-fasting state (FIG. 10A) ([1]; STZ-induced rats, Days 1, 8 and 14): maintenance or reduction | insulin, non-fasting state (FIG. 9) ([1]; STZ-induced rats, Days 1 and 8): significant reduction | oral glucose tolerance test (blood glucose, AUC) ([1]; STZ-induced rats, after fifteen days of treatment, significant relative to vehicle and control, FIGS. 11A-11B): significant glucose control | absolute reduction in HbA1C versus vehicle ([2]; 28 days daily treatment, Day 29, FIG. 12): 3.5% | HbA1C throughout the entire study, including post-treatment ([2]; FIG. 12): remained reduced | oral glucose tolerance test (OGTT) on Day 25 ([2]; both Compound 10 dose groups, in contrast to vehicle and liraglutide): improved glycemic control | tolerability ([2]; daily treatment for twenty-eight days, throughout the study): tolerated Compound 10 well | 4-hour fasting blood glucose ([2]; high-dose arm, during treatment up to Day 29): strong reduction | body weight [3]: Significant reductions | blood glucose levels (non-fasting) during treatment ([3]; 175 mg/kg QD, measured weekly during treatment, FIG. 15B, 175 mg/kg): strongly reduces; also recorded: reduction of glucose levels | OGTT AUC reduction, Day 15 ([3]; Compound 10 175 mg/kg, pioglitazone 30 mg/kg QD, p<0.05): 41% | blood lipemic levels ([3]; p<0.01): Significant reductions | insulin, non-fasting state ([4]; 175 mg/kg/day PO QD, Days 1, 8, 14, compared to vehicle and control, FIG. 2A): significant reduction | glucose, fasting state ([4]; 175 mg/kg/day PO QD, compared to vehicle and control, FIG. 1B): significant reduction | insulin, fasting state ([4]; 175 mg/kg/day PO QD, compared to vehicle and control, FIG. 2B): significant reduction | insulin resistance (HOMA), non-fasting state ([4]; 175 mg/kg/day PO QD, compared to vehicle and control, FIG. 3A): significant reduction | insulin resistance (HOMA), fasting state ([4]; 175 mg/kg/day PO QD, compared to vehicle and control, FIG. 3B): significant reduction | glucose, non-fasting state ([4]; Compound 10 175 mg/kg/day PO QD, compared to vehicle and control (pioglitazone), FIG. 1A): significant reduction | oral glucose tolerance test (blood glucose, AUC), Day 29 ([4]; Day 29, after fourteen days of no treatment, FIGS. 5A-5B): significant glucose control | C-peptide two weeks after therapy ([4]; FIG. 7): increasing C-peptide | oral glucose tolerance test (blood glucose, AUC) ([4]; after fifteen days of treatment, 2 g/kg glucose, FIGS. 4A-4B): significant glucose control | 4-hour fasting insulin after two weeks without therapy ([4]; no therapy for two weeks, statistically superior to control, FIG. 6A): increasing insulin | 4-hour fasting glucose after two weeks without therapy ([4]; no therapy for two weeks, statistically superior to control, FIG. 6B): glucose lowering | HbA1c, all doses tested ([5]; 4-week dosing study): significantly reduces; also recorded: significant reductions | fasting blood glucose levels, mid- and high-dose arms ([5]; 85 and 170 mg/kg QD, similar to liraglutide): reduction | HbA1c two weeks after the last dose ([5]; Day 15 post-dosing, FIG. 21): maintains a significant reduction | HbA1c absolute amount lower than the liraglutide group ([5]; Day 29): 1.8% | HbA1c absolute amount lower than the vehicle group ([5]; Day 29): 3.5% | HbA1c reduced from vehicle (relative) ([5]; Day 29): 33% | HbA1c relative reduction printed with the liraglutide comparison ([5]; Day 29, reduced from vehicle): 20% | glycemic control over four weeks of dosing ([5]; FIG. 20): durable glycemic control | fasting blood glucose, Day 29 ([5]; high-dose group, one day after treatment stopped): sustained and significant reduction | oral glucose tolerance test (OGTT) on Day 25, high-dose group ([5]; high-dose-treated group versus liraglutide): improved response versus liraglutide | oral glucose tolerance test (OGTT) on Day 25, all dose groups ([5]; in comparison to the vehicle-treated group): improved glycemic control | body weight over time [5, 7]: progressive increase | fasting blood glucose levels over time [5, 7]: progressive increase | fasting c-peptide levels [5, 8]: elevated | fasting insulin levels [5, 8]: elevated | body weight ([6]; 175 mg/kg QD for sixteen days, 175 mg/kg): reduces body weight; also recorded: Significant reductions | blood lipemic levels (cholesterol, triglycerides) ([6]; 175 mg/kg QD for sixteen days, Day 17, p<0.01, 175 mg/kg): significantly reduces; also recorded: Significant reductions | reduction in fasting blood glucose levels [6, 9]: ~50% | reduction in non-fasting blood glucose levels [6, 9]: ~50% | HOMA-IR ([6]; 175 mg/kg QD, after two weeks of treatment, p<0.001): reduced | C-peptide levels [6, 10]: significantly reduced | serum insulin levels [6, 10]: significantly reduced | OGTT AUC reduction, Day 15 ([6]; 175 mg/kg QD, p<0.001): 54% | OGTT AUC reduction, Day 29 ([6]; drug washout, ~two weeks after the last dose, p<0.05): 40% | insulin sensitivity (HOMA-IR) ([6]; sixteen days of treatment, FIG. 16): increases insulin sensitivity | blood glucose, insulin, and C-peptide levels during drug washout ([6]; two weeks after the last dose, FIG. 14): maintains significant impact
